Reference: paper PMC9481570, “A small molecule antagonist of SMN disrupts the interaction between SMN and RNAP II” (Nature Communications, 2022)
Values joined by “and” are separate entries in the source; they are usually repeats but may differ in a detail not shown here. Equal entries are not always repeated.

Biological target: T1, SMN (Homo sapiens, UniProt Q16637)
T1 construct: endogenous in cells; host or cells: U2OS
Assay: AP-MS chemical proteomics, SMN
Assay type: binding
Method: The samples for AP-MS were prepared following pulldown procedure as previously described with minor modifications. Briefly, U2OS cells were lysed in RIPA buffer and the cell lysate was equally divided into two groups: (1) DMSO group (control group): the cell lysate was incubated with 20 μM biotin-labeled compound 1; (2) Cpmd 1 group (sample group): the cell lysate was incubated with 20 μM biotin-labeled compound 1 and 200 μM free compound 1. Each group contains three biological replicates. They were incubated overnight at 4 °C, then 30 μL streptavidin beads (Thermo Fisher, 20353) was added and incubated at 4 °C for 1 h. The beads were then washed with RIPA buffer for 3 times, 10 min/time.
Beads were rinsed twice with 50 mM TEAB, pH 7.55, before eluting proteins with 25 μL of 5% SDS, 50 mM TEAB, pH 7.55. The sample was then centrifuged at 17,000 × g for 10 min to remove any debris. Proteins were reduced with 20 mM TCEP (Thermo Fisher, 77720) and incubated at 65 °C for 30 min. […]
Samples were analyzed by nanoLC-MS/MS (nanoRSLC, Thermo Fisher) using an Aurora series (Ion Opticks) reversed phase HPLC column (25 cm length × 75 µm inner diameter) and directly injected to an Orbitrap Eclipse (Thermo Fisher) using a 120 min gradient (mobile phase A = 0.1% formic acid, mobile phase B = 99.9% acetonitrile with 0.1% formic acid; hold 2% B for 5 min, 2–6% B in 0.1 min, 6–25% in 100 min, 25–50% in 15 min) at a flow rate of 350 nL/min. Eluted peptide ions were analyzed using a data-dependent acquisition (DDA) method with resolution settings of 120,000 and 15,000 (at m/z 200) for MS1 and MS2 scans, respectively. […]
The data of AP-MS were analyzed as a previously described method with minor modifications. […] Relative protein quantification was based on the label-free quantification incorporated in the MaxQuant software. […] The missing iBAQ intensity was replaced by a random number, which was calculated from a normal distribution with a width of 0.3 and a downshift of 1.8 defined by Perseus software (version 1.6.5.0). The P-value was calculated by performing two-sample Student’s t-test. […]

T1 sequence (Q16637 whole entry): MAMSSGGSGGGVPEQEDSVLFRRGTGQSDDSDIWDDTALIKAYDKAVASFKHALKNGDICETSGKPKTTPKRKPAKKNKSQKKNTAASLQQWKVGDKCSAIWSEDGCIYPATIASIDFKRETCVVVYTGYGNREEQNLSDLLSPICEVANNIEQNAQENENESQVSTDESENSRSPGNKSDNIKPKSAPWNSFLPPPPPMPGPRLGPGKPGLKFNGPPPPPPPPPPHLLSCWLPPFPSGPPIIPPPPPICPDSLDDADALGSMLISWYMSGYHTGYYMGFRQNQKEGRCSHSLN

In the case of `Cn1c2c(c(=N)c3c1CCC3)CCC2` [Compound 1, 4-methyl-2,3,4,5,6,7-hexahydrodicyclopenta[b,e]pyridin-8(1H)-imine], the Difference (GN=SMN1/SMN2 (Q16637), Cmpd minus DMSO, -LOG(P-value) 4.49648) is reported as -8.914, the “iBAQ Cmpd” value (GN=SMN1/SMN2 (Q16637), replicates 1-3) is reported as 15.271 and 13.8686 and 14.4098 and the “log2 FC (Cmpd 1/DMSO), SMN” value (biotin-Cmpd 1 pulldown, competition with 200 μM compound 1 relative to DMSO, U2OS lysate) is reported as −8.9.
